US20240158446A1, “CYCLIC COMPOUND HAVING SELECTIVE INHIBITORY ACTION ON KRAS OVER HRAS AND NRAS” (CHUGAI SEIYAKU KABUSHIKI KAISHA, priority 2021, published 2024)
Read-outs that look alike come from different tables or passages of the source. Where a SMILES comes first, the peptide text is derived from it. Bridges are numbered along the chain shown (N, C = ends). [ ]: non-standard residue; d: D form. The star is where a group is joined. hPhe(3-Cl-4-CF3) = N[C@@H](CCc1ccc(C(F)(F)F)c(Cl)c1)C(=O)O; NPrPhe(4-CF3) = CCCN[C@@H](Cc1ccc(C(F)(F)F)cc1)C(=O)O; NMeGly(cPent) = CN[C@H](C(=O)O)C1CCCC1; Pro(4,4-F2) = O=C(O)[C@@H]1CC(F)(F)CN1; NMeD = CN[C@@H](CC(=O)O)C(=O)O; NMeL = CN[C@@H](CC(C)C)C(=O)O; NEtAla = CCN[C@@H](C)C(=O)O; Morpholide = C1CN(*)CCO1; NMeA = CN[C@@H](C)C(=O)O; Ac5c = NC1(C(=O)O)CCCC1; Aze = O=C(O)[C@@H]1CCN1; Ac4c = NC1(C(=O)O)CCC1; Sar = CNCC(=O)O

How the values were obtained:
[1] = biological target: GDP-bound KRAS wild-type protein (Homo sapiens, UniProt P01116); assay: Binding to KRAS by surface plasmon resonance (SPR), Single Cycle Kinetics; details: GDP-bound KRAS wild-type protein, read-out: KRAS KD
[2] = biological target: GDP-bound NRAS wild-type protein (Homo sapiens, UniProt P01111); assay: Binding to NRAS by surface plasmon resonance (SPR), Single Cycle Kinetics; details: for NRAS/KRAS (ratio of KD value for NRAS to KD value for KRAS) / NRAS/KRAS (ratio of KD value with respect to NRAS to KD value with respect to KRAS): SPR, GDP-bound NRAS wild-type protein vs GDP-bound KRAS wild-type protein
[3] = biological target: GDP-bound HRAS wild-type protein (Homo sapiens, UniProt P01112); assay: Binding to HRAS by surface plasmon resonance (SPR), Single Cycle Kinetics; details: for HRAS/KRAS (ratio of KD value for HRAS to KD value for KRAS) / HRAS/KRAS (ratio of KD value with respect to HRAS to KD value with respect to KRAS): SPR, GDP-bound HRAS wild-type protein vs GDP-bound KRAS wild-type protein
[4] = SPR Single Cycle Kinetics, 1:1 binding model

Chain of GDP-bound KRAS wild-type protein (P01116 whole entry): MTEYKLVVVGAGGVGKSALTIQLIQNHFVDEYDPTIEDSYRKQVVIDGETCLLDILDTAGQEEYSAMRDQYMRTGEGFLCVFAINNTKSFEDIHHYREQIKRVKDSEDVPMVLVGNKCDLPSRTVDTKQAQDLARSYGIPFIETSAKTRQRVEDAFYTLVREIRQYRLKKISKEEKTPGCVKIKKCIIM
Chain of GDP-bound NRAS wild-type protein (P01111 whole entry): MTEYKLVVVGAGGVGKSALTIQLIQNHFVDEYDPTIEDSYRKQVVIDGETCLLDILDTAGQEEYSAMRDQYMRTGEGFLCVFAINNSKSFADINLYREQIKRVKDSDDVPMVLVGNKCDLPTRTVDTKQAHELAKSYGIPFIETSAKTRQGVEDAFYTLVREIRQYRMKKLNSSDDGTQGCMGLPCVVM
Chain of GDP-bound HRAS wild-type protein (P01112 whole entry): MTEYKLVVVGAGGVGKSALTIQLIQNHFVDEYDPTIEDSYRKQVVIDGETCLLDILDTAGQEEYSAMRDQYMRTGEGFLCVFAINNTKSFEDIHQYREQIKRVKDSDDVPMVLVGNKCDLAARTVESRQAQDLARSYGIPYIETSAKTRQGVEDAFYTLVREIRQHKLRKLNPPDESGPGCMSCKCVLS

Row | Compound | Kd ([1]; SPR, Single Cycle Kinetics) | NRAS/KRAS (ratio of KD value for NRAS to KD value for KRAS) [2] | HRAS/KRAS (ratio of KD value for HRAS to KD value for KRAS) [3] | Kd [1, 4] | NRAS/KRAS (ratio of KD value with respect to NRAS to KD value with respect to KRAS) [2] | HRAS/KRAS (ratio of KD value with respect to HRAS to KD value with respect to KRAS) [3] | NRAS/KRAS (ratio of KD value with respect to GDP-bound NRAS wild-type protein to KD value with respect to KRAS) ([2]; SPR KD ratio NRAS/KRAS, class symbols) | HRAS/KRAS (ratio of KD value with respect to GDP-bound HRAS wild-type protein to KD value with respect to KRAS) ([3]; SPR KD ratio HRAS/KRAS, class symbols)
1 | CCCN(C)C(=O)[C@@H]1CC(=O)N(C)[C@@H](C(C)C)C(=O)N[C@@H]([C@@H](C)CC)C(=O)N(C)CC(=O)N(C)[C@H]2C/C=C\CCN(C2=O)[C@@H](Cc2ccc(C(F)(F)F)cc2)C(=O)N(C)CC(=O)N[C@@H](CCc2cc(F)c(C(F)(F)F)c(F)c2)C(=O)N2C[C@@H](C)C[C@H]2C(=O)NC2(CCC2)C(=O)N(C)[C@@H](C2CCCC2)C(=O)N1C [PP2079] | 290 pM | A (a compound having 10 or more and less than 20 is denoted as A) | A (a compound having 10 or more and less than 20 is denoted as A) |  |  |  |  | 
2 | CC[C@H](C)[C@@H]1NC(=O)[C@H](CC)N(C)C(=O)C[C@@H](C(=O)N(C)C)N(CC)C(=O)[C@H](C2CCCC2)N(C)C(=O)C2(CCC2)NC(=O)[C@@H]2C[C@@H](N3CCC(F)(F)CC3)CN2C(=O)[C@H](CCc2cc(F)c(C(F)(F)F)c(F)c2)NC(=O)CN(C)C(=O)[C@H](Cc2ccc(C(F)(F)F)cc2)N2CCCC[C@@H](C2=O)N(C)C(=O)CN(C)C1=O [PP0733] |  |  |  | 770 pM | B (a compound having 3 or more and less than 10 is denoted as B) | B (a compound having 3 or more and less than 10 is denoted as B) |  | 
3 | CCO[C@@H]1C[C@H]2C(=O)NC3(CCC3)C(=O)N(C)[C@@H](C3CCCC3)C(=O)N(C)[C@H](C(=O)N(C)C)CC(=O)N(C)[C@@H](CC)C(=O)N[C@@H]([C@@H](C)CC)C(=O)N(C)CC(=O)N(C)[C@H]3CCCCN(C3=O)[C@@H](Cc3ccc(C(F)(F)F)cc3)C(=O)N(C)CC(=O)N[C@@H](CCc3ccc(OC(F)F)c(F)c3)C(=O)N2C1 [PP0986] | 270 pM | C (A compound having a KD ratio of 0.1 or more and less than 3 is denoted as C) | C (A compound having a KD ratio of 0.1 or more and less than 3 is denoted as C) |  |  |  |  | 
4 | CCCN1C(=O)CN(C)C(=O)CN(C)C(=O)[C@H]([C@@H](C)CC)NC(=O)[C@H](CC(C)C)N(C)C(=O)C[C@@H](C(=O)N2CCOCC2)NC(=O)[C@H](C2CCCC2)N(C)C(=O)C2(CCC2)NC(=O)[C@@H]2CC(F)(F)CN2C(=O)[C@H](CCc2ccc(C(F)(F)F)c(Cl)c2)NC(=O)CN(C)C(=O)[C@@H]1Cc1ccc(C(F)(F)F)cc1 [PP0322] ([NMeL]I[Sar][Sar][NPrPhe(4-CF3)][Sar][hPhe(3-Cl-4-CF3)][Pro(4,4-F2)][Ac4c][NMeGly(cPent)]D-Morpholide; lactam N-11) |  | B (a compound having 3 or more and less than 10 is denoted as B) | C (A compound having a KD ratio of 0.1 or more and less than 3 is denoted as C) | 840 pM |  |  |  | 
5 | CC[C@H](C)[C@@H]1NC(=O)[C@H](C)N(C)C(=O)C[C@@H](C(=O)N(C)C)N(C)C(=O)[C@H](C2CCCC2)N(C)C(=O)C2(CCCC2)NC(=O)[C@@H]2CC(F)(F)CN2C(=O)[C@H](CCc2cc(F)c(C(F)(F)F)c(F)c2)NC(=O)CN(C)C(=O)[C@H](Cc2ccc(C(F)(F)F)cc2)N2CCCCC[C@@H](C2=O)N(C)C(=O)CN(C)C1=O [PP0472] |  |  |  | 770 pM | B (a compound having 3 or more and less than 10 is denoted as B) | B (a compound having 3 or more and less than 10 is denoted as B) |  | 
6 | CCCN1C(=O)[C@@H]2CCN2C(=O)[C@H](C)N(CC)C(=O)[C@H]([C@@H](C)CC)NC(=O)[C@H](CC(C)C)N(C)C(=O)C[C@@H](C(=O)N2CCOCC2)N(C)C(=O)[C@H](C2CCCC2)N(C)C(=O)C2(CCCC2)NC(=O)[C@@H]2CCCN2C(=O)[C@H](CCc2ccc(C(F)(F)F)c(Cl)c2)NC(=O)CN(C)C(=O)[C@@H]1Cc1ccc(C(F)(F)F)cc1 [PP0152] ([NMeL]I[NEtAla][Aze][NPrPhe(4-CF3)][Sar][hPhe(3-Cl-4-CF3)]P[Ac5c][NMeGly(cPent)][NMeD]-Morpholide; lactam N-11) |  | C (A compound having a KD ratio of 0.1 or more and less than 3 is denoted as C) | B (a compound having 3 or more and less than 10 is denoted as B) | 2800 pM |  |  |  | 
7 | CC[C@H](C)[C@@H]1NC(=O)[C@H](CC(C)C)N(C)C(=O)C[C@@H](C(=O)N2CCCCC2)N(C)C(=O)[C@H](C2CCCC2)N(C)C(=O)C2(CCCC2)NC(=O)[C@@H]2CCCN2C(=O)[C@H](CCc2cc(F)c(C(F)(F)F)c(F)c2)NC(=O)CN(C)C(=O)[C@H](Cc2ccc(C(F)(F)F)cc2)N2CCCC[C@@H](C2=O)N(C)C(=O)CN(C)C1=O [PP0572] |  |  |  | 140 pM | B (a compound having 3 or more and less than 10 is denoted as B) | B (a compound having 3 or more and less than 10 is denoted as B) |  | 
8 | CCC[C@H]1C(=O)N[C@@H]([C@@H](C)CC)C(=O)N(C)CC(=O)N(C)[C@H]2C/C=C\CCN(C2=O)[C@@H](Cc2ccc(C(F)(F)F)cc2)C(=O)N(C)CC(=O)N[C@@H](CCc2ccc(C(F)(F)F)c(OC)c2)C(=O)N2CCCCC[C@H]2C(=O)NC2(CC(C)(C)C2)C(=O)N(C)[C@@H](C(CC)CC)C(=O)N(C)[C@H](C(=O)N(C)C)CC(=O)N1C [PP2968] |  |  |  | 550 pM |  |  | AA (a compound having 20 or more is denoted as AA) | A (a compound having 10 or more and less than 20 is denoted as A)
9 | CCCN1C(=O)CN(C)C(=O)CNC(=O)[C@H]([C@@H](C)CC)NC(=O)[C@H](CC(C)C)N(C)C(=O)C[C@@H](C(=O)N2CCOCC2)NC(=O)[C@H](C2CCCC2)N(C)C(=O)C2(CCCC2)NC(=O)[C@@H]2CC(F)(F)CN2C(=O)[C@H](CCc2ccc(C(F)(F)F)c(Cl)c2)NC(=O)CN(C)C(=O)[C@@H]1Cc1ccc(C(F)(F)F)cc1 [PP0327] ([NMeL]IG[Sar][NPrPhe(4-CF3)][Sar][hPhe(3-Cl-4-CF3)][Pro(4,4-F2)][Ac5c][NMeGly(cPent)]D-Morpholide; lactam N-11) |  | B (a compound having 3 or more and less than 10 is denoted as B) | B (a compound having 3 or more and less than 10 is denoted as B) | 1900 pM |  |  |  | 
10 | CCCN1C(=O)[C@@H]2CCN2C(=O)[C@H](C)N(C)C(=O)[C@H]([C@@H](C)CC)NC(=O)[C@H](CC(C)C)N(C)C(=O)C[C@@H](C(=O)N2CCOCC2)NC(=O)[C@H](C2CCCC2)N(C)C(=O)C2(CCCC2)NC(=O)[C@@H]2CC(F)(F)CN2C(=O)[C@H](CCc2ccc(C(F)(F)F)c(Cl)c2)NC(=O)CN(C)C(=O)[C@@H]1Cc1ccc(C(F)(F)F)cc1 [PP0345] ([NMeL]I[NMeA][Aze][NPrPhe(4-CF3)][Sar][hPhe(3-Cl-4-CF3)][Pro(4,4-F2)][Ac5c][NMeGly(cPent)]D-Morpholide; lactam N-11) |  | C (A compound having a KD ratio of 0.1 or more and less than 3 is denoted as C) | B (a compound having 3 or more and less than 10 is denoted as B) | 1300 pM |  |  |  | 
11 | CCO[C@@H]1C[C@H]2C(=O)NC3(CCC3)C(=O)N(C)[C@@H](C3CCCC3)C(=O)N(C)[C@H](C(=O)N3CCOCC3)CC(=O)N(C)[C@@H](COC)C(=O)N[C@@H]([C@@H](C)CC)C(=O)N3CC[C@H]3C(=O)N(C)[C@H]3CCCCCN(C3=O)[C@@H](Cc3ccc(C(F)(F)F)cc3)C(=O)N(C)CC(=O)N[C@@H](CCc3cc(F)c(C(F)(F)F)c(F)c3)C(=O)N2C1 [PP0863] | 600 pM | B (a compound having 3 or more and less than 10 is denoted as B) | B (a compound having 3 or more and less than 10 is denoted as B) |  |  |  |  | 
12 | CCO[C@@H]1C[C@H]2C(=O)NC3(CCC3)C(=O)N(C)[C@@H](C3CCCC3)C(=O)N(C)[C@H](C(=O)N(C)C)CC(=O)N(C)[C@@H](COC)C(=O)N[C@@H]([C@@H](C)CC)C(=O)N(C)CC(=O)N(C)[C@H]3C/C=C\CCN(C3=O)[C@@H](Cc3ccc(C(F)(F)F)cc3)C(=O)N(C)CC(=O)N[C@@H](CCc3cc(F)c(C(F)(F)F)c(F)c3)C(=O)N2C1 [PP1113, (2S,8S,12R,14S,20S,23S,27S,30S,36S,38Z)-20-cyclopentyl-8-[2-[3,5-difluoro-4-(trifluoromethyl)phenyl]ethyl]-12-ethoxy-27-(methoxymethyl)-N,N,4,19,22,26,32,35-octamethyl-30-[(1S)-1-methylpropyl]-3,6,9,15,18,21,25,28,31,34,42-undecaoxo-2-[[4-(trifluoromethyl)phenyl]methyl]spiro[1,4,7,10,16,19,22,26,29,32,35-undecazatricyclo[34.5.1.0^10,14]dotetracont-38-ene-17,1′-cyclobutane]-23-carboxamide] | 31 pM | A (a compound having 10 or more and less than 20 is denoted as A) | A (a compound having 10 or more and less than 20 is denoted as A) |  |  |  |  | 
13 | CCCN1C(=O)CN(C)C(=O)CNC(=O)[C@H]([C@@H](C)CC)NC(=O)[C@H](CC(C)C)N(C)C(=O)C[C@@H](C(=O)N(C)C)N(C)C(=O)[C@H](C2CCCC2)N(C)C(=O)C2(CCC2)NC(=O)[C@@H]2CCCN2C(=O)[C@H](CCc2ccc(C(F)(F)F)c(Cl)c2)NC(=O)CN(C)C(=O)[C@@H]1Cc1ccc(C(F)(F)F)cc1 [PP0418] ([NMeL]IG[Sar][NPrPhe(4-CF3)][Sar][hPhe(3-Cl-4-CF3)]P[Ac4c][NMeGly(cPent)][NMeD]-NMe2; lactam N-11) |  |  |  | 74 pM | B (a compound having 3 or more and less than 10 is denoted as B) | C (A compound having a KD ratio of 0.1 or more and less than 3 is denoted as C) |  | 
